The target in test [1] is T1, calpain (Mus musculus, UniProt O35350).
T1 construct: enzymatic activity of calpain in the supernatant fraction of the dexamethasone treated, induced cell lysate
T1 sequence (O35350 1-713): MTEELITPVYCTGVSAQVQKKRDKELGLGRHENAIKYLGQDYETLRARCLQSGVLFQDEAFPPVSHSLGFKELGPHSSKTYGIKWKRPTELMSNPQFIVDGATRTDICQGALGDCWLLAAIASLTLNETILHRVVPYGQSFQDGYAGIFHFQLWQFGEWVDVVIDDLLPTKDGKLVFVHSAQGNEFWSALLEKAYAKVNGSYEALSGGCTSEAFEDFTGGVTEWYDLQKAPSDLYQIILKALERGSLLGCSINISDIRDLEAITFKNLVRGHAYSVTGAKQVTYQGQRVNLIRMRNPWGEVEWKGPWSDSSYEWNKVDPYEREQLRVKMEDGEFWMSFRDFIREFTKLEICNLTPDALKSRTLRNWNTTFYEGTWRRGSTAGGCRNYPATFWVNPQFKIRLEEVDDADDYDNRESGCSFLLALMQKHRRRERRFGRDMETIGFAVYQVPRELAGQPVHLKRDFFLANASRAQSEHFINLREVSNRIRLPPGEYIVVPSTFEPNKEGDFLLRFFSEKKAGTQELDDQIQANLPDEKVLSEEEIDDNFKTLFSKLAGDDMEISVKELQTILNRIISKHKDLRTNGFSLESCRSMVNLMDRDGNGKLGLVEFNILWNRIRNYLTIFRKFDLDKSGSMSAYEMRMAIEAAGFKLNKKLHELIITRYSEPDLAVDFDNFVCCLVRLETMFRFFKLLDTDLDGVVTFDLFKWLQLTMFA
T1 sequence (O88456 1-268 partner): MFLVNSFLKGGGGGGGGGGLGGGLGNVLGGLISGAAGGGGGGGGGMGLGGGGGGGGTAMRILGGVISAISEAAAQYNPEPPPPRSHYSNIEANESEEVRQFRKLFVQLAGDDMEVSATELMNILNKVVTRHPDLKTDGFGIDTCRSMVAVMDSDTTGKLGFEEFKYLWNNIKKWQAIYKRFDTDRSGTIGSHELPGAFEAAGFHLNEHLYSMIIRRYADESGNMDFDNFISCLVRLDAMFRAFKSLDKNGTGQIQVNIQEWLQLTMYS
The settings on record: supernatant fraction of dexamethasone treated, induced cell lysate; cited from earlier work.

Test [2] has as its system proteolytic cleavage of iNOS in induced DLD-1-5B2 cells. Put plainly: Inhibition of the cleavage of iNOS in situ in induced DLD-1-5B2 cells (Western blot of particulate fraction). The format is cell-based, human. The settings on record: nine hours; for fragmentation (proteolytic cleavage) of iNOS in situ: 24-well plates, 20 μg/well, inhibitor added three hours after start of induction, Western blot FIG. 8; for fragmentation (proteolytic cleavage) of iNOS in situ, larger scale production: T-75 flasks, inhibitor added 3 hours after induction, Western blot FIG. 9. Here is the method:
DLD-1-5B2 cells, two days past confluence, were induced to express human iNOS using a mixture of recombinant human gamma interferon (rhIFNγ) at 8.33 ng/ml, recombinant human tumor necrosis factor-alpha (rhTNFα) at 3.3 ng/ml, and recombinant human interleukin-1β (rhIL-1β) at 3.3 ng/ml for 12-18 hours before being washed and harvested with trypsin/EDTA. The induced cells were washed three times with sterile PBS, transferred into sterile tubes in a small volume of sterile PBS, and stored frozen at −20° C. until processed for the isolation and fractionation of iNOS.
The frozen, induced DLD-1-5B2 cells were thawed in an ice water bath and lysed by two rapid freeze/thaw cycles using dry ice. The iNOS produced by the induced DLD-1-5B2 cells was then fractionated into a supernatant (soluble) fraction and a particulate fraction. The lysed cells were centrifuged at 16,000×g at 4° C. for 30 minutes to pellet the particulate fraction. The supernatant fraction that contained the soluble iNOS was transferred and stored at −20° C. or used fresh. The pellets were washed once, resuspended in a small volume of ice cold sterile PBS, and the resulting particulate fraction of iNOS was stored at −20° C. or used fresh.
The ability of six specific protease inhibitors to inhibit the cleavage of iNOS in situ was investigated using induced DLD-1-5B2 cells cultured in 24-well plates. Briefly, DLD-1-5B2 cells were cultured in 24-well plates instead of T-75 flasks, as described previously. Two days past confluence, the cells were induced with the same mixture of cytokines, but after three hours, the induction medium was removed from each well, the cells washed with pre-warmed sterile saline, and the medium replaced either with fresh DMEM, or with DMEM containing one of the six protease inhibitors being tested. Each inhibitor was assayed in triplicate at 20 μg/well. Nine hours later (12 hours after the start of the induction) the medium containing the inhibitors was removed, the cells were washed three times with ice-cold PBS, and the 24-well plates were placed on sheets of ice for 10 minutes to loosen the cells from the bottom of the plastic wells. The cells were blown off each well individually using a mechanical pipettor, sterile pipet tips, and ice-cold, sterile PBS. The cells were transferred to individual microfuge tubes on ice, collected by centrifugation, and washed twice with sterile, ice-cold PBS. No trypsin or other protease or EDTA was used during the harvesting or processing of the induced cells. The cells were lysed by 2 freeze/thaw cycles using dry ice and processed as previously described to isolate a supernatant fraction and a particulate fraction by centrifugation at 16,000×g. Both fractions were assayed in duplicate using the chemiluminescent EIA taught in U.S. patent application Ser. No. 09/628,585, and pools of the triplicate samples obtained for each protease inhibitor were analyzed by western blot. No statistically significant difference was found in the amount of iNOS contained in any of the supernatant fractions when compared to other supernatant fractions. Likewise, no statistically significant difference was found in the amount of iNOS contained in any of the particulate fractions when compared to other particulate fractions as measured by the EIA. Further, the distribution of iNOS between the supernatant and particulate fractions was similar for all the samples: the percent of the total iNOS in the supernatant fraction ranged from 55% to 65% and the percent of the total iNOS in the particulate fraction ranged from 35% to 45%. However, as is shown in FIG. 8, a difference in the form of the iNOS was found in the particulate fractions obtained from two of the protease inhibitors.
The quantity of particulate fraction produced was scaled up in T-75 culture flasks for both of these protease inhibitors in order to make enough material to be tested for their individual lethality in our mouse model of sepsis. […]

Test [3] deals with mouse model of sepsis. Put plainly: Lethality of particulate fractions produced in presence of protease inhibitors, mouse model of sepsis. The format is in vivo. Conditions: LPS primed mice, N=10 per group; E-64 vs no inhibitor P<0.0002, vs SBTI P<0.002. The method, then:
It was reasoned that the conversion of soluble iNOS to particulate iNOS, and thereby to lethal iNOS, might be the result of the proteolytic cleavage of the intact protein molecule. It was hypothesized that decreasing the cleavage process might be beneficial to septic patients since the lethal form of iNOS would be reduced or eliminated. This hypothesis was tested using various protease inhibitors. The loss of lethality produced by specific protease inhibitors was assessed by testing the lethal effects exerted by the administration of the particulate iNOS produced in the presence and absence of protease inhibitors to LPS primed mice.
The three particulate fractions prepared in Example IX were tested for their lethality on groups of mice (5 female and 5 male mice per group, N=10) using our mouse model of sepsis. […] It is believed that treatment of septic patients with a protease inhibitor that decreases or stops the cleavage of iNOS in vivo could serve as an effective therapy for SIRS, sepsis, severe sepsis and septic shock.

Entries after “also recorded” stand apart in the source; their conditions may differ. Where a SMILES comes first, the peptide text is derived from it. [ ]: non-standard residue; d: D form. The star is where a group is joined. Sta = CC(C)C[C@H](N)[C@@H](O)CC(=O)O; Isovaleryl = CC(C)CC(=O)*; Nle = CCCC[C@H](N)C(=O)O

As for `CCCC[C@@H](C=O)NC(=O)[C@H](CC(C)C)NC(=O)[C@H](CC(C)C)NC(C)=O` [Ac-Leu-Leu-NLeu-al] (Ac-Leu-Leu-[Nle]-aldehyde), the “cleavage of recombinant iNOS protein by calpain” value (“cleavage … by calpain” below) in test [1] was “inhibit such cleavage”.

With `CC(C)C[C@H](NC(=O)[C@H]1O[C@@H]1C(=O)O)C(=O)NCCCCN=C(N)N` [E-64], in test [2], the “fragmentation (proteolytic cleavage) of iNOS in situ” value is on record as “inhibited the proteolytic cleavage of the intact iNOS protein; also recorded: stopped (inhibited) the fragmentation of iNOS in situ” and the “fragmentation (proteolytic cleavage) of iNOS in situ, larger scale production” value is on record as “inhibiting the proteolytic cleavage of intact iNOS protein; also recorded: inhibit the fragmentation of iNOS in situ”. Also, the “cleavage … by calpain” value in test [1] is “inhibit such cleavage”. In test [3], the “lethality of the particulate iNOS fraction isolated from cells induced in the presence of the inhibitor” value is given as “decrease the lethality of the particulate iNOS fraction; also recorded: statistically significant decrease in lethality”.

With `CC(=O)N[C@@H](CC(C)C)C(=O)N[C@@H](CC(C)C)C(=O)N[C@H](C=O)CCCNC(=N)N` [Leupeptin, leupeptin], the “fragmentation (proteolytic cleavage) of iNOS in situ” value in test [2] is “stopped (inhibited) the fragmentation of iNOS in situ”; in test [2] (listed as leupeptin) it was “inhibited the proteolytic cleavage of the intact iNOS protein”. Further, the “cleavage … by calpain” value in test [1] is on record as “inhibit such cleavage”. Besides, in test [3], the “lethality of the particulate iNOS fraction isolated from cells induced in the presence of the inhibitor” value was “decrease the lethality of the particulate iNOS fraction”.

`CC(C)CC(=O)N[C@H](C(=O)N[C@H](C(=O)N[C@@H](CC(C)C)[C@@H](O)CC(=O)N[C@@H](C)C(=O)N[C@@H](CC(C)C)[C@@H](O)CC(=O)O)C(C)C)C(C)C` [pepstatin-A] (Isovaleryl-VV[Sta]A[Sta]-OH): in test [2], the “fragmentation (proteolytic cleavage) of iNOS in situ” value is “did not stop (inhibit) this cleavage process”. For the same molecule, the “lethality of the particulate iNOS fraction isolated from cells induced in the presence of the inhibitor” value in test [3] is “had no effect on the lethality of the particulate iNOS fraction”.

With aprotinin, the “fragmentation (proteolytic cleavage) of iNOS in situ” value in test [2] is “did not stop (inhibit) this cleavage process”.

Consider “α1-protease inhibitor: protease inhibitor”, for which the “fragmentation (proteolytic cleavage) of iNOS in situ” value in test [2] is recorded as “did not stop (inhibit) this cleavage process”. For the same molecule, in test [3], the “lethality of the particulate iNOS fraction isolated from cells induced in the presence of the inhibitor” value is “had no effect on the lethality of the particulate iNOS fraction”.

B1: soybean trypsin inhibitor: protease inhibitor (protein, UniProt P01070 25-205, looked up)
Trypsin inhibitor A: DFVLDNEGNPLENGGTYYILSDITAFGGIRAAPTGNERCPLTVVQSRNELDKGIGTIISSPYRIRFIAEGHPLSLKFDSFAVIMLCVGIPTEWSVVEDLPEGPAVKIGENKDAMDGWFRLERVSDDEFNNYKLVFCPQQAEDDKCGDIGISIDHDDGTRRLVVSKNKPLVVQFQKLDKESL
Regarding B1, in test [2], the “fragmentation (proteolytic cleavage) of iNOS in situ” value was “did not stop (inhibit) this cleavage process” and the “fragmentation (proteolytic cleavage) of iNOS in situ, larger scale production” value is “inability of soybean trypsin inhibitor (lane 2) to inhibit this cleavage process”. Also, the “lethality of the particulate iNOS fraction isolated from cells induced in the presence of the inhibitor” value in test [3] is on record as “had no effect on the lethality of the particulate iNOS fraction”.

The values are drawn from patent publication US20070105780A1, “Therapeutic agent for iNOS generating illness” (priority 2005, published 2007).
